The IC50 is the point on the concentration scale where inhibition reaches its midpoint. Higher therefore signals lower potency.

The test system of the assay is IL-12 induced STAT4 phosphorlyation mediated by TYK2/JAK2. Kind of assay: IL-12 Induced pSTAT4 in Human PBMC. Format: cell-based. The conditions noted are these: 1.7 ng/mL IL-12 for 30 minutes. As for the experimental part:
Human PBMC were isolated from buffy coat and are stored frozen for assays as needed. […] 15 μL of compound or DMSO was added to the well at the desired concentrations and incubated at 1 hr at 37° C. 15 μL of stimulus (final concentration of 1.7 ng/mL IL-12) was added for 30 minutes prior to pSTAT4 and total STAT4 analysis using cell lysates prepared and analyzed by MSD reagents as per manufacturer protocol. The final DMSO concentration of compound in the assay was 0.1%.
The IL-12 induced pSTAT4 assay evaluates the inhibition of IL-12 induced STAT4 phosphorlyation mediated by TYK2/JAK2 (heterpdimeric complex).

With `CNc1cc(Nc2cccn([C@@H]3CC[C@H]3OC)c2=O)nc2c(C(=O)N[C@H]3CC[C@@H]3O)cnn12` [Compound I-20, N-((1S,2S)-2-Hydroxycyclobutyl)-5-((1-((1R,2R)-2-methoxycyclobutyl)-2-oxo-1,2-dihydropyridin-3-yl)amino)-7-(methylamino)pyrazolo[1,5-a]pyrimidine-3-carboxamide], the half-inhibitory concentration (IC50) (0.5 h) is less than 0.1 µM.
The molecule `CNc1cc(Nc2cccn([C@H]3[C@@H]4COC[C@@H]43)c2=O)nc2c(C(=O)N[C@@H]3C[C@H]3OC)cnn12` [Compound I-25, 5-((1-((1R,5S,6r)-3-Oxabicyclo[3.1.0]hexan-6-yl)-2-oxo-1,2-dihydropyridin-3-yl)amino)-N-((1R,2R)-2-methoxycyclopropyl)-7-(methylamino)pyrazolo[1,5-a]pyrimidine-3-carboxamide] displayed an IC50 of less than 0.1 µM.
Consider `CNc1cc(Nc2cccn(-c3ccc(C)nc3)c2=O)nc2c(C(=O)N[C@@H]3C[C@H]3OC)cnn12` [Compound I-34, N-((1R,2R)-2-Methoxycyclopropyl)-5-((6′-methyl-2-oxo-2H-[1,3′-bipyridin]-3-yl)amino)-7-(methylamino)pyrazolo[1,5-a]pyrimidine-3-carboxamide], for which the IC50 (0.5 h) is less than 0.1 µM.
Regarding `CNc1cc(Nc2cccn([C@H]3C[C@H](F)C3)c2=O)nc2c(C(=O)N[C@@H]3CC[C@H]3OC)cnn12` [Compound I-57, 5-((1-((1r,3R)-3-Fluorocyclobutyl)-2-oxo-1,2-dihydropyridin-3-yl)amino)-N-((1R,2R)-2-methoxycyclobutyl)-7-(methylamino)pyrazolo[1,5-a]pyrimidine-3-carboxamide], the IC50 was less than 0.1 µM.
As to `[2H]C([2H])([2H])O[C@H]1CCC1NC(=O)c1cnn2c(NC)cc(Nc3cccn([C@H]4[C@@H]5COC[C@@H]54)c3=O)nc12` (stereo partly drawn) [Compound I-102, 5-((1-((1R,5S,6r)-3-Oxabicyclo[3.1.0]hexan-6-yl)-2-oxo-1,2-dihydropyridin-3-yl)amino)-N-((trans-1,2)-2-(methoxy-d3)cyclobutyl)-7-(methylamino)pyrazolo[1,5-a]pyrimidine-3-carboxamide], the IC50 (0.5 h) was less than 0.1 µM.
The molecule `CNc1cc(Nc2cccn([C@H]3C[C@H](F)C3)c2=O)nc2c(C(=O)N[C@@H]3CC[C@H]3O)cnn12` [Compound I-108, 5-((1-((1r,3R)-3-Fluorocyclobutyl)-2-oxo-1,2-dihydropyridin-3-yl)amino)-N-((1R,2R)-2-hydroxycyclobutyl)-7-(methylamino)pyrazolo[1,5-a]pyrimidine-3-carboxamide] had an IC50 of 0.1 to 0.5 µM.
For the setting “0.5 h”, `CNc1cc(Nc2cccn([C@H]3CCC[C@@H](C#N)C3)c2=O)nc2c(C(=O)NC3CC[C@@H]3OC)cnn12` (stereo partly drawn) [Compound I-114, 5-((1-((1S,3R)-3-Cyanocyclohexyl)-2-oxo-1,2-dihydropyridin-3-yl)amino)-N-((trans-1,2)-2-methoxycyclobutyl)-7-(methylamino)pyrazolo[1,5-a]pyrimidine-3-carboxamide] gave an IC50 of less than 0.1 µM.
`CNc1cc(Nc2cccn([C@@H]3CCC[C@H](C#N)C3)c2=O)nc2c(C(=O)NC3CC[C@@H]3OC)cnn12` (stereo partly drawn) [Compound I-115, 5-((1-((1R,3S)-3-Cyanocyclohexyl)-2-oxo-1,2-dihydropyridin-3-yl)amino)-N-((trans-1,2)-2-methoxycyclobutyl)-7-(methylamino)pyrazolo[1,5-a]pyrimidine-3-carboxamide]: the IC50 (0.5 h) was less than 0.1 µM.
`CNc1cc(Nc2cccn([C@@H]3CCC[C@](C)(OC)C3)c2=O)nc2c(C(=O)NC3CC3)cnn12` [Compound I-124] had an IC50 of less than 0.1 µM.
`CNc1cc(Nc2cccn(C3COC3)c2=O)nc2c(C(=O)N[C@@H]3C[C@@H]3F)cnn12` [Compound I-125]: the IC50 is less than 0.1 µM.
For `CNc1cc(Nc2cccn([C@H]3CCC[C@@](C)(O)C3)c2=O)nc2c(C(=O)N[C@@H]3C[C@@H]3F)cnn12` [Compound I-129], the IC50 was less than 0.1 µM.
`CNc1cc(Nc2cccn(C3CCC[C@@](C)(OC)C3)c2=O)nc2c(C(=O)N[C@@H]3C[C@@H]3F)cnn12` (stereo partly drawn) [Compound I-130]: the IC50 is less than 0.1 µM.
`CNc1cc(Nc2cccn([C@@H]3CCC[C@](C)(OC)C3)c2=O)nc2c(C(=O)N[C@@H]3C[C@@H]3F)cnn12` [Compound I-131]: the IC50 is less than 0.1 µM.
Still for that read-out and setting: under `CNc1cc(Nc2cccn([C@H]3C[C@@H]3F)c2=O)nc2c(C(=O)N[C@@H]3C[C@H]3OC)cnn12` [Compound I-133] stands less than 0.1 µM; under `CNc1cc(Nc2cccn([C@@H]3C[C@H]3F)c2=O)nc2c(C(=O)N[C@@H]3C[C@H]3OC)cnn12` [Compound I-135], less than 0.1 µM.
Turning to `CNc1cc(Nc2cccn(C3CC(F)(F)C3)c2=O)nc2c(C(=O)N[C@@H]3C[C@H]3OC)cnn12` [Compound I-139], the IC50 was less than 0.1 µM.
For `CNc1cc(Nc2cccn(C(C)C)c2=O)nc2c(C(=O)N[C@@H]3CC[C@H]3F)cnn12` [Compound I-147], the IC50 is less than 0.1 µM.
`CNc1cc(Nc2cccn([C@H]3C[C@@H]3F)c2=O)nc2c(C(=O)NC3CC[C@@H]3F)cnn12` (stereo partly drawn) [Compound I-148, N-((trans-1,2)-2-Fluorocyclobutyl)-5-((1-((1S,2S)-2-fluorocyclopropyl)-2-oxo-1,2-dihydropyridin-3-yl)amino)-7-(methylamino)pyrazolo[1,5-a]pyrimidine-3-carboxamide]: the IC50 (0.5 h) was less than 0.1 µM.
In the case of `CNc1cc(Nc2cccn([C@H]3C[C@@H]3F)c2=O)nc2c(C(=O)N[C@H]3CC[C@@H]3F)cnn12` [Compound I-149], the half-inhibitory concentration (IC50) is less than 0.1 µM.
On the same count and under the same terms, the value for `CNc1cc(Nc2cccn([C@@H]3C[C@H]3F)c2=O)nc2c(C(=O)NC3CC[C@@H]3F)cnn12` (stereo partly drawn) [Compound I-151] was less than 0.1 µM; that for `CNc1cc(Nc2cccn([C@@H]3C[C@H]3OC)c2=O)nc2c(C(=O)N[C@H]3CC[C@@H]3F)cnn12` [Compound I-155] was less than 0.1 µM.
Molecule `CNc1cc(Nc2cccn([C@H]3C[C@@H]3OC)c2=O)nc2c(C(=O)N[C@H]3CC[C@@H]3F)cnn12` [Compound I-158] yielded an IC50 of less than 0.1 µM.
Molecule `CNc1cc(Nc2cccn([C@H]3C[C@H](F)C3)c2=O)nc2c(C(=O)NC3CC[C@@H]3F)cnn12` (stereo partly drawn) [Compound I-164] had an IC50 of less than 0.1 µM.
Consider `CNc1cc(Nc2cccn([C@H]3C[C@H](F)C3)c2=O)nc2c(C(=O)N[C@H]3CC[C@@H]3F)cnn12` [Compound I-165], for which the IC50 was less than 0.1 µM.
Still for that read-out and setting: under `CNc1cc(Nc2cccn([C@H]3CC[C@H]3O)c2=O)nc2c(C(=O)NC3CC[C@@H]3F)cnn12` (stereo partly drawn) [Compound I-167] stands less than 0.1 µM.
On to `CNc1cc(Nc2cccn([C@H]3CC[C@H]3O)c2=O)nc2c(C(=O)N[C@@H]3CC[C@H]3F)cnn12` [Compound I-169], for which the IC50 is less than 0.1 µM.
On the same count and under the same terms, the value for `CNc1cc(Nc2cccn([C@H]3C[C@@H](OC)C3)c2=O)nc2c(C(=O)N[C@H]3CC[C@@H]3F)cnn12` [Compound I-174] was less than 0.1 µM.
In turn, `CNc1cc(Nc2cccn([C@H]3C[C@H](OC)C3)c2=O)nc2c(C(=O)N[C@@H]3CC[C@H]3F)cnn12` [Compound I-178] yielded a concentration for half-maximal inhibition (IC50) of less than 0.1 µM.
Still for that read-out and setting: under `CNc1cc(Nc2cccn([C@@H]3CCC[C@@H]3O)c2=O)nc2c(C(=O)NC3CC[C@@H]3F)cnn12` (stereo partly drawn) [Compound I-179] stands less than 0.1 µM.
On the same count and under the same terms, under `CNc1cc(Nc2cccn([C@@H]3CCC[C@@H]3O)c2=O)nc2c(C(=O)N[C@@H]3CC[C@H]3F)cnn12` [Compound I-181] stands less than 0.1 µM; under `CNc1cc(Nc2cccn(C3CCOCC3)c2=O)nc2c(C(=O)NC3CC[C@@H]3F)cnn12` (stereo partly drawn) [Compound I-188], less than 0.1 µM; under `CNc1cc(Nc2cccn(C3CCOCC3)c2=O)nc2c(C(=O)N[C@@H]3CC[C@H]3F)cnn12` [Compound I-190], less than 0.1 µM.
The molecule `CNc1cc(Nc2cccn(C3CCOCC3)c2=O)nc2c(C(=O)NC3CC[C@H]3F)cnn12` (stereo partly drawn) [Compound I-191] yielded an IC50 of less than 0.1 µM.
Still for that read-out and setting: the value for `CNc1cc(Nc2cccn(C3CCOCC3)c2=O)nc2c(C(=O)N[C@H]3CC[C@H]3F)cnn12` [Compound I-192] was less than 0.1 µM.
Still for that read-out and setting: under `CNc1cc(Nc2cccn(C3CCOCC3)c2=O)nc2c(C(=O)N[C@@H]3CC[C@@H]3F)cnn12` [Compound I-193] stands less than 0.1 µM; under `CNc1cc(Nc2cccn([C@@H]3CCCOC3)c2=O)nc2c(C(=O)NC3CC[C@@H]3F)cnn12` (stereo partly drawn) [Compound I-194], less than 0.1 µM.
Still for that read-out and setting: the value for `CNc1cc(Nc2cccn([C@@H]3CCCOC3)c2=O)nc2c(C(=O)N[C@@H]3CC[C@H]3F)cnn12` [Compound I-196] was less than 0.1 µM; that for `CNc1cc(Nc2cccn([C@H]3CCCOC3)c2=O)nc2c(C(=O)NC3CC[C@@H]3F)cnn12` (stereo partly drawn) [Compound I-197] was less than 0.1 µM; that for `CNc1cc(Nc2cccn([C@H]3CCCOC3)c2=O)nc2c(C(=O)N[C@H]3CC[C@@H]3F)cnn12` [Compound I-198] was less than 0.1 µM.
Molecule `CNc1cc(Nc2cccn(-c3ccccn3)c2=O)nc2c(C(=O)NC3CC[C@@H]3F)cnn12` (stereo partly drawn) [Compound I-200] had an IC50 of less than 0.1 µM.
On the same count and under the same terms, the value for `CNc1cc(Nc2cccn(-c3ccccn3)c2=O)nc2c(C(=O)N[C@H]3CC[C@@H]3F)cnn12` [Compound I-201] was less than 0.1 µM.
On the same count and under the same terms, the value for `CNc1cc(Nc2cccn([C@H]3[C@@H]4COC[C@@H]43)c2=O)nc2c(C(=O)NC3CC[C@H]3F)cnn12` (stereo partly drawn) [Compound I-203] was less than 0.1 µM; that for `CNc1cc(Nc2cccn([C@H]3[C@@H]4COC[C@@H]43)c2=O)nc2c(C(=O)N[C@H]3CC[C@H]3F)cnn12` [Compound I-204] was less than 0.1 µM; that for `CNc1cc(Nc2cccn([C@H]3[C@@H]4COC[C@@H]43)c2=O)nc2c(C(=O)N[C@@H]3CC[C@@H]3F)cnn12` [Compound I-205] was less than 0.1 µM.
Turning to `CNc1cc(Nc2cccn([C@H]3[C@@H]4COC[C@@H]43)c2=O)nc2c(C(=O)NC3CC[C@@H]3F)cnn12` (stereo partly drawn) [Compound I-206], the IC50 was less than 0.1 µM.
